The target of one data set is AKT1/PKBa (Homo sapiens, UniProt P31749). Briefly: AKT1/PKBa kinase assay. The note with it: 10 μM compound; read-out: AKT1/PKBa percent of inhibition. It is filed as biochemical. The essentials: (§1)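 Radiometric filter-binding assay: each kinase was set to 10% ATP turnover, with ATP at KmATP plus [γ-33P]ATP and substrate at 5-fold Km. Compounds were tested at 10 μM final, the reaction ran 1 h at room temperature, and it was stopped with EDTA before counting.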

A further data set has as its target P70S6K (Homo sapiens, UniProt P23443). The data set can be described thus: P70S6K kinase assay. It is filed as biochemical. The note with it: 10 μM compound; read-out: P70S6K percent of inhibition. The essentials:
as §1

Another data set deals with cMet (Homo sapiens, UniProt P08581). Briefly: cMet kinase assay. The conditions noted are these: 10 μM compound; read-out: cMet percent of inhibition. It counts as biochemical. In outline:
as §1

Another data set has as its target Jnk1a1 (Homo sapiens, UniProt P45983). Briefly: Jnk1a1 kinase assay. The note with it: 10 μM compound; read-out: Jnk1a1 percent of inhibition. It is filed as biochemical. In outline: as §1
Another data set has as its target CDK2/CycA (Homo sapiens, UniProt P24941). Briefly: CDK2/CycA kinase assay. It counts as biochemical. The conditions noted are these: 10 μM compound; read-out: CDK2/CycA percent of inhibition. The essentials:
as §1

Another data set concerns the target CK1-alpha (Homo sapiens, UniProt P48729). Briefly: CK1-alpha kinase assay. It is filed as biochemical. The note with it: 10 μM compound; read-out: CK1-alpha percent of inhibition. In outline: as §1
The next data set deals with Kit (Homo sapiens, UniProt P10721). Briefly: Kit kinase assay. It counts as biochemical. The note with it: 10 μM compound; read-out: Kit percent of inhibition. The essentials: as §1
For another data set, the target named is T1, IKK-beta (Homo sapiens, UniProt O14920).
T1 sequence (O14920 1-756): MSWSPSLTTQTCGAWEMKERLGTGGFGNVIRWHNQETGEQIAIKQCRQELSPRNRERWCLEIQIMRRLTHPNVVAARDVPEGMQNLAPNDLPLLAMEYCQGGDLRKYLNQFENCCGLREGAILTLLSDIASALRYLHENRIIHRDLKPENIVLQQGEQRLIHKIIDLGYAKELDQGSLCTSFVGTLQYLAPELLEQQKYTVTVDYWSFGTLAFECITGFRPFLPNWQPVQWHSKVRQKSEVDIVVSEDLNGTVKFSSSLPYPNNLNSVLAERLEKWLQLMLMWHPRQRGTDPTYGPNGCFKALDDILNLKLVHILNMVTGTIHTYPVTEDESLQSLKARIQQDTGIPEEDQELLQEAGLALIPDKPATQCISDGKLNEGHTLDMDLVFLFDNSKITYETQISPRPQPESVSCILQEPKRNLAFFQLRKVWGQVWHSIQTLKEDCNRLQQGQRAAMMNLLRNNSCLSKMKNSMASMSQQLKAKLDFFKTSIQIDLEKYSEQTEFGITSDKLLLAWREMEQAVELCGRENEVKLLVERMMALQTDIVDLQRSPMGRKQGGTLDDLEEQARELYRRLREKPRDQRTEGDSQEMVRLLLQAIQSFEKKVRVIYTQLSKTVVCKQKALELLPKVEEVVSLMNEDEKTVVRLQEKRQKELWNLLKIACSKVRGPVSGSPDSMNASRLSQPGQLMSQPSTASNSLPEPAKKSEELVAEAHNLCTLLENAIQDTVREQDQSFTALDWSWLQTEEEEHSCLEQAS
The data set can be described thus: IKK-beta kinase assay. It counts as biochemical. The note with it: 10 μM compound; read-out: IKK-beta percent of inhibition. The essentials: as §1

Another data set has as its target ROCK2 (Homo sapiens, UniProt O75116). Briefly: ROCK2 kinase assay. It is filed as biochemical. The note with it: 10 μM compound; read-out: ROCK2 percent of inhibition. The essentials:
as §1

Another data set deals with GSK-3beta (Homo sapiens, UniProt P49841). Briefly: GSK-3beta kinase assay. It counts as biochemical. The note with it: 10 μM compound; read-out: GSK-3beta percent of inhibition. In outline:
as §1

Another data set has as its target P56Lck (Homo sapiens, UniProt P06239). The data set can be described thus: P56Lck kinase assay. It is filed as biochemical. The note with it: 10 μM compound; read-out: P56Lck percent of inhibition. The essentials:
as §1

Another data set has as its target EGFR (Homo sapiens, UniProt P00533). Briefly: EGFR kinase assay (33P-ATP filter plate). It counts as biochemical. The note with it: for inhibition at 10 µM: 10 μM compound, read-out: EGFR percent of inhibition; for IC50: EGFR-PTK assay. In outline:
as §1

The next data set has as its target c-Raf (Homo sapiens, UniProt P04049). The data set can be described thus: c-Raf kinase assay. It is filed as biochemical. The conditions noted are these: 10 μM compound; read-out: c-Raf percent of inhibition. The essentials:
as §1

Another data set deals with MAPK-ERK1 (Homo sapiens, UniProt P27361). Briefly: MAPK-ERK1 kinase assay. It counts as biochemical. The note with it: 10 μM compound; read-out: MAPK-ERK1 percent of inhibition. The essentials:
as §1

In another data set the target is PDGFR-beta (Homo sapiens, UniProt P09619). The data set can be described thus: PDGFR-beta kinase assay. The note with it: 10 μM compound; read-out: PDGFR-beta percent of inhibition. It counts as biochemical. The essentials: as §1
The target in another data set is Abl (Homo sapiens, UniProt P00519). The data set can be described thus: Abl kinase assay. The note with it: 10 μM compound; read-out: Abl percent of inhibition. It counts as biochemical. The essentials: as §1
The target of the next data set is c-Src (Homo sapiens, UniProt P12931). Briefly: c-Src kinase assay. It counts as biochemical. The conditions noted are these: 10 μM compound; read-out: c-Src percent of inhibition. The essentials:
as §1

Another data set deals with InsR (Homo sapiens, UniProt P06213). Briefly: InsR kinase assay. It is filed as biochemical. The conditions noted are these: 10 μM compound; read-out: InsR percent of inhibition. The essentials: as §1
A further data set addresses SRPK1 (Homo sapiens, UniProt Q96SB4). The data set can be described thus: SRPK1 kinase assay. The note with it: 10 μM compound; read-out: SRPK1 percent of inhibition. It is filed as biochemical. The essentials:
as §1

The next data set concerns the target RSK1 (Homo sapiens, UniProt Q15418). Briefly: RSK1 kinase assay. The conditions noted are these: 10 μM compound; read-out: RSK1 percent of inhibition. It counts as biochemical. The essentials: as §1

Sequence of Jnk1a1 (P45983 1-384 isoform P45983-2): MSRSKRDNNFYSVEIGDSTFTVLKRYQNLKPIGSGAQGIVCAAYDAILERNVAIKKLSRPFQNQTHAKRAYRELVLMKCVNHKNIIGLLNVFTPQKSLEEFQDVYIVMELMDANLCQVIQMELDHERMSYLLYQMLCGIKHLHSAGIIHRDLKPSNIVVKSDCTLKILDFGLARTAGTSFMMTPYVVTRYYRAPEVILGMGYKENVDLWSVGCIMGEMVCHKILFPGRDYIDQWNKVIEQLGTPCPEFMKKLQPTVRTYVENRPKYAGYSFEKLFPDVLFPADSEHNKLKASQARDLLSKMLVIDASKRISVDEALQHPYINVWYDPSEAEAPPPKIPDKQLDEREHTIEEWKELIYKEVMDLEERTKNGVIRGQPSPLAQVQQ
Sequence of PDGFR-beta (P09619 33-1106, species assumed): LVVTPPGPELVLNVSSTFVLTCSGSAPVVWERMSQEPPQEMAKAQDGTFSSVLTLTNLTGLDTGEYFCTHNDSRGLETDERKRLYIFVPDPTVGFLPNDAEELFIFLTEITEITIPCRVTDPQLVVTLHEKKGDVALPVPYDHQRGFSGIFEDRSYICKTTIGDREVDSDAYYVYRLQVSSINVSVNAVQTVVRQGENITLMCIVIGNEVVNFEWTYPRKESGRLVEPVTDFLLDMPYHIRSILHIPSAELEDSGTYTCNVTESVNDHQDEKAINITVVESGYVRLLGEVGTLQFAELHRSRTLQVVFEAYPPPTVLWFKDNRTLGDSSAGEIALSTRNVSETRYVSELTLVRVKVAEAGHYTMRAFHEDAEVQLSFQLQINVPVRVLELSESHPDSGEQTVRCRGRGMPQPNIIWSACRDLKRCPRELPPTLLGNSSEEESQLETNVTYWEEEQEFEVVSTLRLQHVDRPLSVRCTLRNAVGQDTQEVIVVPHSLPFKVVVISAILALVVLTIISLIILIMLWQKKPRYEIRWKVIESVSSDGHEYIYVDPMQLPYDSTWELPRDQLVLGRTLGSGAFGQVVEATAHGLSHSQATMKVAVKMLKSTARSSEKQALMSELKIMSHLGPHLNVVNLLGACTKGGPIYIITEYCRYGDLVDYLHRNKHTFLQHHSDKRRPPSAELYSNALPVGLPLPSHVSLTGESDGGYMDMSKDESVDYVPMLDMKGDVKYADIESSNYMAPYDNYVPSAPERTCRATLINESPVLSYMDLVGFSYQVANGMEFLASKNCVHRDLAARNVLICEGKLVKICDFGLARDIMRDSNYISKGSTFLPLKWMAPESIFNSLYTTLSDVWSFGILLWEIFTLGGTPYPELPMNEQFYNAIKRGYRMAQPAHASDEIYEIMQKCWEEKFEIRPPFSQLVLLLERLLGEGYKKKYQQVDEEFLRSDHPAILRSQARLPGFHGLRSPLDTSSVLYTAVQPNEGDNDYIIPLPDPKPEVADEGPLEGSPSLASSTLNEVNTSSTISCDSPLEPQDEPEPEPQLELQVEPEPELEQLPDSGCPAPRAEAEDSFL
Sequence of Abl (P00519 whole entry, species assumed): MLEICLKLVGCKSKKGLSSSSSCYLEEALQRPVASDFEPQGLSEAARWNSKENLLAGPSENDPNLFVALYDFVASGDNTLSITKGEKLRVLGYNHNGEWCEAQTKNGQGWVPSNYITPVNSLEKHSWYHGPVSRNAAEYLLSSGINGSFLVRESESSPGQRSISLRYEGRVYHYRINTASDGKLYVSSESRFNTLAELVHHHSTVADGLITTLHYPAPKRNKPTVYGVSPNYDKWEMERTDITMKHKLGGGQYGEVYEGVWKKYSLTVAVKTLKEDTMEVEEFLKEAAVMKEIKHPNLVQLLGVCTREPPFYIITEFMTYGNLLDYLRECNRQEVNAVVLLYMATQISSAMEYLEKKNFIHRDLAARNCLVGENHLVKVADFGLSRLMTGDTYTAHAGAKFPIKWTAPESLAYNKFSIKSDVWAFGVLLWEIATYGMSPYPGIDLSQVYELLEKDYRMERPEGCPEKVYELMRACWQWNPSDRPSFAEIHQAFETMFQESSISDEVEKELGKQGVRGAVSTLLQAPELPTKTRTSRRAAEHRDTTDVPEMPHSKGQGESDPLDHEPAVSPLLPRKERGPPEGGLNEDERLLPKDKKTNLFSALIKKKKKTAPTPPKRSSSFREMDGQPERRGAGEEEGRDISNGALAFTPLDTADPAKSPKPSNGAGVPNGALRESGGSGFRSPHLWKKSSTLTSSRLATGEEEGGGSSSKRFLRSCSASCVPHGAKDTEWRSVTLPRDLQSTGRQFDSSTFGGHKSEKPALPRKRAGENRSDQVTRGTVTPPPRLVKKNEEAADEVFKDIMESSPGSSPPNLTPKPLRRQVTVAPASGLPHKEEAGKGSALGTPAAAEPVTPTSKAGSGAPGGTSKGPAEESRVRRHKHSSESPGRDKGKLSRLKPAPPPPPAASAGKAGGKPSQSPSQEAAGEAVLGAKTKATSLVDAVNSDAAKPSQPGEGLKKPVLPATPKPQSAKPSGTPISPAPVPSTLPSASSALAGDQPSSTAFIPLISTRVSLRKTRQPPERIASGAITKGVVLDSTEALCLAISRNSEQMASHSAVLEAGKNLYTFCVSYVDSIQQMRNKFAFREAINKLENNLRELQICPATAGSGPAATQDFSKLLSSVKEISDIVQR
Sequence of ROCK2 (O75116 whole entry, species assumed): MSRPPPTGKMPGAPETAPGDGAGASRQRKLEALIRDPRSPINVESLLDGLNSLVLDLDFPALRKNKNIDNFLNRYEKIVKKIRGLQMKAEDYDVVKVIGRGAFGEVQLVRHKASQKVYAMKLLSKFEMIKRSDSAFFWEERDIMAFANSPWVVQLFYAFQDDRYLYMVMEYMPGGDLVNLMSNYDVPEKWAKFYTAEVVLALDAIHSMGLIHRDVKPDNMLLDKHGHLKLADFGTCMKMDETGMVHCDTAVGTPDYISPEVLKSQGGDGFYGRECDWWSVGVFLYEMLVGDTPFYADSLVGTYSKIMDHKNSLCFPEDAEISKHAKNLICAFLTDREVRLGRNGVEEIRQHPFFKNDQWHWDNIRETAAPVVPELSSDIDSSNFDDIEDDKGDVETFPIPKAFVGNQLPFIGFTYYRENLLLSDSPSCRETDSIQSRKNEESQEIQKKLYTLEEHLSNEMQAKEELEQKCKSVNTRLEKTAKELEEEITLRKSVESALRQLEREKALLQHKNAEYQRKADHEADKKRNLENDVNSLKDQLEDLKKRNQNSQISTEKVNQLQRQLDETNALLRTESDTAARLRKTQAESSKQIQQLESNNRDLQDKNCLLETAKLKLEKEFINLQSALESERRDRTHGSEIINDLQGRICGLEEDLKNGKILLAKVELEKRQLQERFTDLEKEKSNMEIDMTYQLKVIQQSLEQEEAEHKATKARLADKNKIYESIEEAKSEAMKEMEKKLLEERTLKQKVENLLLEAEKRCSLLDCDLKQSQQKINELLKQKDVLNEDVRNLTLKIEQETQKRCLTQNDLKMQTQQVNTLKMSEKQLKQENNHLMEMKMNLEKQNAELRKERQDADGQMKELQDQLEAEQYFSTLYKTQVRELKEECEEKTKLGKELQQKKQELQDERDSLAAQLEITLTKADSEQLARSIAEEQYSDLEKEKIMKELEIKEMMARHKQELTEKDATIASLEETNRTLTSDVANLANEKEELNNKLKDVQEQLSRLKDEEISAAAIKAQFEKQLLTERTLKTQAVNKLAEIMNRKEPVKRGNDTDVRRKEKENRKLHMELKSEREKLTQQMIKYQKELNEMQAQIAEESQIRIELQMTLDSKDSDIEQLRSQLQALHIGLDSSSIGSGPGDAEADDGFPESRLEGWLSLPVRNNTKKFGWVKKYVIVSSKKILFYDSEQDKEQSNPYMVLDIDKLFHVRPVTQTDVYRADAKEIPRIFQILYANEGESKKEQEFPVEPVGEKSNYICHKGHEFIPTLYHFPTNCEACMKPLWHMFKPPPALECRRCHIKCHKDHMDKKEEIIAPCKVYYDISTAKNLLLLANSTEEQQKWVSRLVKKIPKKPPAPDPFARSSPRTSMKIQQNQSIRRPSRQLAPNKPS
Sequence of CK1-alpha (P48729 whole entry): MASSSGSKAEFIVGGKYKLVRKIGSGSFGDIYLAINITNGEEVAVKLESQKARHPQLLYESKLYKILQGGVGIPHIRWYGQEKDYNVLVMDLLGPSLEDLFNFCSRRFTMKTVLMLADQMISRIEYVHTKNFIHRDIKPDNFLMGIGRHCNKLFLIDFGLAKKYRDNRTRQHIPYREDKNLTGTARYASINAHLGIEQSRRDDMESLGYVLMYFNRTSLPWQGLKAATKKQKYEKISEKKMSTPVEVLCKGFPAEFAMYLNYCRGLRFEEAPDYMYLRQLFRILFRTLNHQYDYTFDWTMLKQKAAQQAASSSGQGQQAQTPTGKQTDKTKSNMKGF
Sequence of RSK1 (Q15418 whole entry, species assumed): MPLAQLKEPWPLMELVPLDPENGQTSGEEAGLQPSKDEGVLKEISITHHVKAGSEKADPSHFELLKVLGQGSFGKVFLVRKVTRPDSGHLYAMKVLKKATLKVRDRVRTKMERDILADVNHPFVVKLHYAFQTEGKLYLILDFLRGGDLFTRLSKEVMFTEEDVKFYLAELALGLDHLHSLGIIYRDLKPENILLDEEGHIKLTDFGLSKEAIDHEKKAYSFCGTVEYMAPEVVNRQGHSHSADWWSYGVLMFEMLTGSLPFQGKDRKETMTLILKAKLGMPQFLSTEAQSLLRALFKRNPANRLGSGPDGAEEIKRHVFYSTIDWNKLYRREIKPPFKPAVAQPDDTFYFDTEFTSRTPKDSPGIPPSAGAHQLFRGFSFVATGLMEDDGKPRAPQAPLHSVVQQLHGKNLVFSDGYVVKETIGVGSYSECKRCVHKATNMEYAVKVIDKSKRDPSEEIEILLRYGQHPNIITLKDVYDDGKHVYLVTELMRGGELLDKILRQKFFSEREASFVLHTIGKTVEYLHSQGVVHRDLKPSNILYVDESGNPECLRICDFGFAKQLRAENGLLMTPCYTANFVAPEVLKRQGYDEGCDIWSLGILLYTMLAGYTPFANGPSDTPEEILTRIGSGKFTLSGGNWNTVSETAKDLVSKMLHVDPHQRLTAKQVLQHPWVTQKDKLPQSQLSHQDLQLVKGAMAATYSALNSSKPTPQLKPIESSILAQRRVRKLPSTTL

As for `Fc1cccc(Nc2ncnc3sc4ccccc4c23)c1` [Compound 21, Benzo[4,5]thieno[2,3-d]pyrimidin-4-yl-(3-fluoro-phenyl)-amine], the melting point was 171 °C. At AKT1/PKBa, the inhibition at 10 µM was 3%. In addition, the inhibition at 10 µM on P70S6K was determined as 7%. In addition, the inhibition at 10 µM on cMet worked out at 1%. Further, the inhibition at 10 µM at Jnk1a1 is -2%. Also, on CDK2/CycA, the inhibition at 10 µM was -10%. Also, the inhibition at 10 µM at CK1-alpha turned out to be 0%. Moreover, the inhibition at 10 µM at Kit was -4%. Also, on IKK-beta, the inhibition at 10 µM was 2%. Moreover, the inhibition at 10 µM at ROCK2 came to 4%. The inhibition at 10 µM at GSK-3beta was 3%. The inhibition at 10 µM at P56Lck is -9%. Moreover, on EGFR, the inhibition at 10 µM stood at 98% and the IC50 came to 26.9 nM. Also, the inhibition at 10 µM on c-Raf was -2%. Also, the inhibition at 10 µM on MAPK-ERK1 worked out at 1%. Moreover, the inhibition at 10 µM at PDGFR-beta was -3%. Also, the inhibition at 10 µM on Abl is -4%. Besides, at c-Src, the inhibition at 10 µM came out at 3%. In addition, at InsR, the inhibition at 10 µM was 7%. Besides, the inhibition at 10 µM at SRPK1 is 8%. For the same molecule, the inhibition at 10 µM on RSK1 was found to be 1%.
`Clc1cccc(Nc2ncnc3sc4ccccc4c23)c1` [Compound 22, Benzo[4,5]thieno[2,3-d]pyrimidin-4-yl-(3-chloro-phenyl)-amine] showed a melting point of 168 °C. Moreover, on AKT1/PKBa, the inhibition at 10 µM is -7%. The inhibition at 10 µM on P70S6K is 5%. Also, the inhibition at 10 µM at cMet is 5%. Besides, at Jnk1a1, the inhibition at 10 µM stood at 0%. Besides, the inhibition at 10 µM at CDK2/CycA was -6%. For the same molecule, the inhibition at 10 µM on CK1-alpha was -2%. At Kit, the inhibition at 10 µM came to 1%. For the same molecule, the inhibition at 10 µM on IKK-beta came out at 11%. The inhibition at 10 µM on ROCK2 worked out at 4%. Besides, the inhibition at 10 µM on GSK-3beta is 5%. Besides, the inhibition at 10 µM at P56Lck amounted to 11%. The inhibition at 10 µM at EGFR amounted to 98%. Besides, on c-Raf, the inhibition at 10 µM is -6%. Besides, the inhibition at 10 µM on MAPK-ERK1 turned out to be 5%. For the same molecule, on PDGFR-beta, the inhibition at 10 µM is -8%. In addition, at Abl, the inhibition at 10 µM worked out at 8%. Further, the inhibition at 10 µM at c-Src was 9%. Also, the inhibition at 10 µM on InsR came to 18%. Also, the inhibition at 10 µM on SRPK1 worked out at 6%. Also, the inhibition at 10 µM at RSK1 is -2%.
The molecule `Brc1cccc(Nc2ncnc3sc4ccccc4c23)c1` [Compound 23, Benzo[4,5]thieno[2,3-d]pyrimidin-4-yl-(3-bromo-phenyl)-amine] returned a melting point of 160 °C. On AKT1/PKBa, the inhibition at 10 µM came out at 9%. Further, the inhibition at 10 µM on P70S6K is -1%. Moreover, at cMet, the inhibition at 10 µM came to 4%. The inhibition at 10 µM at Jnk1a1 was -10%. The inhibition at 10 µM at CDK2/CycA is 12%. In addition, the inhibition at 10 µM on CK1-alpha is 7%. For the same molecule, at Kit, the inhibition at 10 µM amounted to 6%. Also, the inhibition at 10 µM at IKK-beta is -5%. Moreover, the inhibition at 10 µM at ROCK2 is 2%. Further, the inhibition at 10 µM on GSK-3beta is -3%. For the same molecule, the inhibition at 10 µM at P56Lck is 4%. Further, at EGFR, the inhibition at 10 µM came out at 99% and the IC50 is 8.08 nM. For the same molecule, the inhibition at 10 µM on c-Raf came out at 3%. Also, the inhibition at 10 µM at MAPK-ERK1 came to 8%. Also, the inhibition at 10 µM on PDGFR-beta amounted to 10%. Further, the inhibition at 10 µM at Abl is -10%. In addition, the inhibition at 10 µM on c-Src came to 7%. For the same molecule, the inhibition at 10 µM at InsR turned out to be 4%. In addition, the inhibition at 10 µM at SRPK1 is 6%. Besides, the inhibition at 10 µM at RSK1 is -4%.

A word on the IC50: it is the concentration at which inhibition is half-maximal. Read a low IC50 as inhibition by little substance. Broadly, the melting point is the temperature of the solid-liquid transition.

The values above are taken from patent US8802849B2, “Tricyclic benzo[4,5]thieno-[2,3-d]pyrimidine-4-yl-amin derivatives, their salts, process for producing the compounds and their pharmaceutical use” (Vichem Chemie Kutató Kft., priority 2008, dated 2014).
